Test results as given in patent publication US20060252807A1, “Novel ortho-terphenyl inhibitors of p38 kinase and methods of treating inflammatory disorders” (Kalypsys, Inc., priority 2005, published 2006).

What follows are molecules tested against T1, active p38 alpha enzyme (Upstate Biotechnology) (Homo sapiens, UniProt Q16539) (assay: p38α biochemical assay (ATP turnover, luminescent detection, Cambrex PKlight)). Details: p38α biochemical assay, Table 1 Biological Activity.
T1 construct: purchased Upstate Biotechnology
T1 sequence (Q16539 whole entry): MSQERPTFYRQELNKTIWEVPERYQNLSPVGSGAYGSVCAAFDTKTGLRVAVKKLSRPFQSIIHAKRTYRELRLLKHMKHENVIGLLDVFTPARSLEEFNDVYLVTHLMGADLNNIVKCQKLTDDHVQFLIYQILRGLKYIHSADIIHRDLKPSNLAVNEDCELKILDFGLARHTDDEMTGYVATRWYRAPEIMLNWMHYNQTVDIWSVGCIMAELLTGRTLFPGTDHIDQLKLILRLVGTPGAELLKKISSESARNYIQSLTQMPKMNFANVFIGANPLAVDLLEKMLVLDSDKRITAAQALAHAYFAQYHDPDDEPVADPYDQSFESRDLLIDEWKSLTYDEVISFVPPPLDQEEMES
Outline: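 In this kinase reaction, p38α used MapkapK2 as phosphorylation substrate at low ATP (1.4 uM final) over 2 hours at 30C, and activity was followed as ATP turnover by luminescence.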

Molecule	IC50 [nM]
COc1ccc(CNC(=O)c2csc(-c3sc(C)nc3-c3ccc(F)cc3)n2)cc1OC [Example 60, 4′-(4-Fluoro-phenyl)-2′-methyl-|2,5′|bithiazolyl-4-carboxylic acid 3,4-dimethoxy-benzylamide]	> 1000
COc1cc(Cl)ccc1C(=O)NCc1onc(-c2ccc(F)cc2)c1-c1nc(C(=O)NC(C)C)cs1 [Example 714]	> 1000
CCN(CC)c1ccc(C(=O)NCc2onc(-c3ccc(F)cc3)c2-c2nc(C(=O)NC(C)C)cs2)cc1 [Example 735]	> 1000
CC(C)NC(=O)c1csc(-c2c(-c3ccc(F)cc3)noc2CNC(=O)c2ccccc2O)n1 [Example 600]	> 1000
CC(=O)Nc1cccc(C(=O)NCc2onc(-c3ccc(F)cc3)c2-c2nc(C(=O)NC(C)C)cs2)c1 [Example 686]	> 1000
CC(C)NC(=O)c1csc(-c2c(-c3ccc(F)cc3)noc2CNC(=O)c2ccccc2-c2ccccc2)n1 [Example 742]	> 1000
CC(C)NC(=O)c1csc(-c2oc(CN3CCN(C(=O)c4cc(F)c(F)c(O)c4F)CC3)nc2-c2ccc(F)cc2)n1 [Example 491]	> 1000
CC(C)NC(=O)c1csc(-c2[nH]c(CN3CCNCC3)nc2-c2ccc(F)cc2)n1 [Example 83, 2-|5-(4-Fluoro-phenyl)-2-piperazin-1-ylmethyl-3H-imidazol-4-yl|-thiazole-4-carboxylic acid isopropylamide]	≤ 1000

Same assay, conditions: p38α kinase; Table 1 Biological Activity

Molecule	IC50 [nM]
Cc1nc(-c2ccc(F)cc2)c(-c2nc(C(=O)Nc3ccc(C)c(C)c3)cs2)s1 [Example 1966]	> 1000
CC(C)NC(=O)c1csc(-c2c(-c3ccc(F)cc3)noc2CN2Cc3ccccc3C2)n1 [Example 1541]	> 1000
CC(C)NC(=O)c1csc(-c2oc(CNCC(=O)c3ccccc3)nc2-c2ccc(F)cc2)n1 [Example 1163]	> 1000
CC(C)NC(=O)c1csc(-c2c(-c3ccc(F)cc3)noc2CNC2CC2)n1 [Example 1386]	> 1000
2-|4-(4-Fluoro-phenyl)-5-oxo-2,5-dihydro-isoxazol-3-yl|-thiazole-4-carboxylic acid isopropyl amide [Example 2181]	> 1000
O=C(NC1CCN(Cc2ccccc2)CC1)c1csc(-c2c(-c3ccc(F)cc3)n[nH]c2C2CCNCC2)n1 [Example 2151]	> 1000
Cc1nc(-c2ccc(F)cc2)c(-c2nc(C(=O)NCCCn3ccnc3)cs2)s1 [Example 1761]	≤ 1000
O=C(NCc1ccco1)c1csc(-c2c(-c3ccc(F)cc3)n[nH]c2C2CCNCC2)n1 [Example 2054]	> 1000
CC(C)NC(=O)c1csc(-c2c(-c3ccc(F)cc3)ncn2C2CC(C)(C)NC(C)(C)C2)n1 [Example 2189, 2-|5-(4-Fluoro-phenyl)-3-(2,2,6,6-tetramethyl-piperidin-4-yl)-3H-imidazol-4-yl|-thiazole-4-carboxylic acid isopropylamide]	> 1000
Cc1nc(-c2ccc(F)cc2)c(-c2nc(C(=O)N3CCN(c4ccccc4F)CC3)cs2)s1 [Example 1904]	> 1000
CC(C)NC(=O)c1csc(-c2c(-c3ccc(F)cc3)n[nH]c2C2CCN(C(=O)c3ccccc3C(=O)c3ccc(O)cc3)CC2)n1 [Example 1036]	> 1000
CC(C)NC(=O)c1csc(-c2oc(CNc3cc(F)cc(F)c3)nc2-c2ccc(F)cc2)n1 [Example 1330]	> 1000
Cc1nc(-c2ccc(F)cc2)c(-c2nc(C(=O)Nc3c(C)cccc3C(C)(C)C)cs2)s1 [Example 2008]	≤ 1000
COC(=O)c1ccc(C(=O)N2CCC(c3[nH]nc(-c4ccc(F)cc4)c3-c3nc(C(=O)NC(C)C)cs3)CC2)cc1 [Example 928]	> 1000
Cc1cccc(NCc2onc(-c3ccc(F)cc3)c2-c2nc(C(=O)NC(C)C)cs2)c1 [Example 1631]	> 1000
CCC(C)NCc1onc(-c2ccc(F)cc2)c1-c1nc(C(=O)NC(C)C)cs1 (stereo not shown) [Example 1393]	> 1000
CC(C)NC(=O)c1csc(-c2c(-c3ccc(F)cc3)n[nH]c2C2CCN(C(=O)C(C(C)C)N(C)C(=O)OC(C)(C)C)CC2)n1 (stereo not shown) [Example 1032]	≤ 1000
